Earlier results as cited in patent US20040224037A1, “Devastating treatment against hiv/aids with capsaicin” (priority 2003, published 2004).
Where two headings read alike, the source gives them in different places. Ends that are not written are not given here.

Key:
[1] = system: proliferating macrophages from the blood of four patients with AIDS dementia
[2] = system: mice
[3] = system: substance p(sp); conditions: pretreatment with Capsaicin in rats
[4] = system: b-endorphin; conditions: rats; 3,5,7 and 15 days after Capsaicin administration
[5] = system: tongue; conditions: Nelson 1910
[6] = system: cancer
[7] = system: Salmonella typhimurium
[8] = system: rats; conditions: higher doses reduced acid output
[9] = system: macrophages; conditions: in vitro
[10] = system: enzyme (cyp2e1) of cytochrome p4502e1; conditions: in the liver
Chain of enzyme (cyp2e1) of cytochrome p4502e1 (P05181 whole entry, species assumed): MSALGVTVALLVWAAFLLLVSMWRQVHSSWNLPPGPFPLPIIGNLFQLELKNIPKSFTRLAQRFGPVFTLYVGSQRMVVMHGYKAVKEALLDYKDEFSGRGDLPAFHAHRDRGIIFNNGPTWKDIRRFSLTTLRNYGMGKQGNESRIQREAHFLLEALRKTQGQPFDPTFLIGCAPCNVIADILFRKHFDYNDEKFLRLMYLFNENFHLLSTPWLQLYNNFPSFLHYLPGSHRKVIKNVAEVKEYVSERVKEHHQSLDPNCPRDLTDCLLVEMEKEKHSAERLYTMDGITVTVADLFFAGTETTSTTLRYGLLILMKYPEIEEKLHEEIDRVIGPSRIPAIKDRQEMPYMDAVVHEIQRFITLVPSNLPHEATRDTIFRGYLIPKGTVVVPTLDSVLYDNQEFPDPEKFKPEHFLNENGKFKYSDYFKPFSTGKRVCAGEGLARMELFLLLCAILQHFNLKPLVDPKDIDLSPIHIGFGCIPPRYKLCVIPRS

[11] = system: intestinal glucose absorption; conditions: 140 mcg/ml, rats in vitro
[12] = system: Escherichia coli
[13] = system: herpes simplex; conditions: sc. administration, rats infected with herpes simplex
[14] = system: histamine and 5-hydroxitryptamine; conditions: treatment with Capsaicin in rats
[15] = system: rats; conditions: iv. treatment, also printed 0.5 mg/kg
[16] = system: Clostridium sporogenes
[17] = Capsaicin administration at high concentration
[18] = system: Staphylococcus aureus
[19] = system: Bacillus cereus
[20] = system: cats
[21] = system: humans
[22] = system: rats; conditions: 18 mcg/kg injected, anesthesia, pretreatment 4,8,16 and 200 mg/kg each 12 hours
[23] = system: rats; conditions: for blood pressure and heart rate after pretreatment: previous anesthesia, Capsaicin pretreatment 100 mg during four days
[24] = system: dogs
[25] = system: dogs; conditions: 10 mcg/kg iv. in dogs
[26] = system: Streptococcus pyogenes
[27] = system: Bacillus subtilis
[28] = system: cats and dogs; conditions: 50 mcg/kg iv. in cats and dogs
[29] = system: [4-(methylnitrosamino)-1-(3-pyridyl)-1-butanone] nnk
[30] = system: Candida albicans
[31] = system: human
[32] = system: human leucocytes
[33] = system: macrophages of mice
[34] = system: guinea pig peritoneal macrophages
[35] = system: lymphocytes
[36] = system: nk cells; conditions: deviation of more or less 11.5%
[37] = system: masT cells; conditions: suspensions of mast cells in rats
[38] = system: Sprague-Dawley cd rats; conditions: pregnant rats, 0, 500 or 5000 mg/kg/day

In the case of `CCNCCCNC[C@@H]1CC[C@H]1CNCCCNCC.Cl.Cl.Cl.Cl` (relative stereo) [SL-11038, N-ethyl-N′-(2-(3′-ethylamino-propylaminomethyl)-trans-cyclobutylmethyl)-propane 1,3-diamine tetrahydrochloride], the “effect on proliferating macrophages” value [1] is listed as “potent effect of inhibition”.

In the case of `CCNCCCNC[C@@H]1C[C@H]1CNCCCNCC.Cl.Cl.Cl.Cl` (relative stereo) [SL-11044, N-ethyl-N′-(2-(3′-ethylamino-propylaminomethyl)-trans-cyclopropylmethyl)-propane 1,3-diamine tetrahydrochloride], the “effect on proliferating macrophages” value [1] is given as “potent effect of inhibition”.

In the case of `CCNCCCCNCCCCNCCCCNCCCCNCC` [BE-4444, 1,19-bis(ethylamino)-5,10,15-triazanonadecane], the “effect on proliferating macrophages” value [1] is given as “potent effect of inhibition”.

For `COc1cc(CNC(=O)CCCC/C=C/C(C)C)ccc1O` [Capsaicin, 8-methyl-n-vanillyl-6-nonenamide], the “GLINSUKON EXP (LD50)” value ([2]; ig. adm, mice) is given as 67 mg/kg, the “GLINSUKON EXP (LD50), value in brackets” value ([2]; ig. adm, mice, second value in brackets) is given as 190 mg/kg and the “GLINSUKON EXP (LD50)” value ([2]; iv. adm, mice) is given as 0.5 mg/kg. The LD50 ([2]; iv., male mice) was 0.56 mg/kg, the “GLINSUKON EXP (LD50)” value ([2]; sc. adm, mice) was 8.5 mg/kg and the “toxicity effect measured by LD50 compared between routes” value ([2]; sc., im., and intraperitoneal (ip.), mice) was “similar”. For the same molecule, the “effect upon the substance p(sp) at intestinal level” value [3] was “did not have effect”, the “b-endorphin concentration in the hypothalamus” value [4] was “decreased” and the “concentration giving perceptible warmth on tongue” value ([5]; 1 ppm) was 1 µg/mL. For the same molecule, the “concentration giving persistent burning on tongue” value ([5]; 10 ppm) was 10 µg/mL, the “growth (cancer)” value [6] was “inhibit growth at low concentration” and the activity [7] was “did not show activity”. The “dose at which acid secretory response reached a maximum” value [8] was 1 mg/kg, the “production of anions superoxides, peroxide of hydrogen and nitrites by macrophages” value ([9]; 10 mcm) was “completely inhibited” and the “activity of enzyme cyp2e1” value [10] was “capable to inhibit”. For the same molecule, the intestinal glucose absorption [11] was “inhibitory effect”, the activity [12] was “did not show activity” and the mortality [13] was “reduced mortality”. The “histamine and 5-hydroxitryptamine” value [14] was “increment”, the letal dose [15] was 0.5 mg/kg and the “effect on growth / activity” value [16] was “did not show activity”. For the same molecule, the “time after which recovery of the desensitization is not complete” value [17] was over 60 days, the activity [18] was “did not show activity” and the “effect on growth / activity” value [19] was “did not show activity”. The “effect of iv. dose” value ([20]; 200 mcg/kg iv. in cats) was “bradycardia, apnea”, the tension reduction ([20]; 200 mcg/kg iv. in cats) was 46 mmhg and the “effect of iv. dose” value ([20]; 400 mcg/kg iv. in cats) was “higher post-hypotension and a second period of apnea”. For the same molecule, the “time for area of hyperalgesia to reach a maximum” value ([21]; 10 mcg intradermal) was at most 5 min, the “time to disappearance of hyperalgesia” value ([21]; 10 mcg intradermal) was at most 15 min and the “time for area of hyperalgesia to reach a maximum” value ([21]; 100 mcg intradermal) was at most 7 min. For the same molecule, the “time to disappearance of hyperalgesia” value ([21]; 100 mcg intradermal) was at most 137 min, the “Bezold-Jarisch reflex after pretreatment” value [22] was “significant inhibition of the Bezold-Jarisch reflex” and the “blood pressure and heart rate after pretreatment” value ([23]; 1 mcg injected, rats) was “normal blood pressure and rate of the heart”. The “effect of iv. dose on blood pressure and heart rate” value ([23]; 1 mcg or 3 mcg/kg iv. in rats) was “reproduced three phases”, the “blood pressure and heart rate after pretreatment” value ([23]; 50 mcg slow infusion over 12 mins) was “normal blood pressure and rate of the heart” and the respiratory effect ([24]; administration rate 10-20 mcg/kg/min, dogs) was “fast superficial respiration, but without apnea”. For the same molecule, the respiratory effect ([24]; injected 0.5-20 mcg/kg, dogs anesthetised with chloralose) was “apnea, followed by a fast superficial respiration”, the “effect of iv. dose” value [25] was “apnea, bradycardia, hypotension” and the “effect on growth / activity” value [26] was “did not show activity”. For the same molecule, the “effect on growth / activity” value [27] was “did not show activity”, the blood pressure [28] was “fast fallen in blood pressure” and the “drop of the pulse, first value” [28] was 108 min⁻¹. For the same molecule, the “drop of the pulse, second value” [28] was 24 min⁻¹, the subsequent tachycardia [28] was 160 min⁻¹ and the “effect on tobacco specific carcinogen nnk” value [29] was “inhibited”. For the same molecule, the activity [30] was “did not show activity”.

For `CCNCCCNCCCNCCCNCC` [Denop, diethylnospermine], the “effect on proliferating macrophages” value [1] is given as “potent effect of inhibition”.

In the case of `CCNCCCNC[C@@H]1C[C@@H]1CNCCCNCC.Cl.Cl.Cl.Cl` [SL-11037, n-ethyl-n′-(2-(3′-ethylamino-propylaminomethyl)-cis-cyclopropylmethyl)-propane 1,3-diamine tetrahydrochloride], the “effect on proliferating macrophages” value [1] is given as “potent effect of inhibition”.

For `CCNCCCNC/C=C\CNCCCNCC.Cl.Cl.Cl.Cl` [SL-11047, N′-bis (3-ethylaminopropyl)-cis-but-2-ene-1,4-diamine tetrahydrochloride], the “effect on proliferating macrophages” value [1] is given as “potent effect of inhibition”.

For `CCNCCCNC/C=C/CNCCCNCC` [SL-11048], the “effect on proliferating macrophages” value [1] is listed as “potent effect of inhibition”.

In the case of `CN1[C@@H]2CC[C@H]1C[C@@H](OC(=O)C(CO)c1ccccc1)C2` (some centres unmarked) [atropine], the “counteraction of the effect of Capsaicin” value ([23]; rat, in vivo) is listed as “able to counteract the effect of Capsaicin”.

In the case of `COc1cc(CNC(=O)CCCCCCC(C)C)ccc1O` [dihydroCapsaicin, 8-methylnonanoic acid vanillylamide], the activity [7] is given as “did not show activity”, the activity [12] is given as “did not show activity” and the “effect on growth / activity” value [16] is given as “did not show activity”. The activity [18] was “did not show activity”, the “effect on growth / activity” value [19] was “did not show activity” and the “effect on growth / activity” value [26] was “did not show activity”. For the same molecule, the “effect on growth / activity” value [27] was “did not show activity” and the activity [30] was “did not show activity”.

For `CCO` [ethanol], the blood alcohol concentration ([31]; 0.5 fluid ounces (about 15 ml) in a 150 pound human) is listed as 0.02%, the “blood alcohol concentration that starts to produce measurable mental impairment” value ([31]; in vivo) is listed as 0.05% and the “fraction processed by the liver” value ([31]; in vivo) is listed as “over 90%”.

In the case of `C=CCc1ccc(O)c(OC)c1` [eugenol], the “concentration required to completely inhibit reactive oxygen species, compared with Capsaicin” value [9] is given as “Higher concentrations”.

For “arg-pro-lys-pro-gln-gln-phe-phe-gly-leu-met-nh2 (RPKPQQFFGLM-NH2; UniProt P20366 58-68, looked up) [Substance p (sp), undecapeptide neuropeptide]”, the phagocytosis [32] is listed as “stimulates phagocytosis”, the phagocytosis [33] is listed as “stimulates phagocytosis” and the “macrophage activation, liberation of reactive oxygen species” value [34] is listed as “activated such macrophages”.

In the case of “b-endorphin: group of protein with potent analgesic properties that occur naturally in the brain (YGGFMTSEKSQTPLVTLFKNAIIKNAYKKGE; Beta-endorphin; UniProt P01189 237-267, looked up)”, the “proliferative response of lymphocytes” value [35] is listed as “increases” and the “increase of activity of nk cells” value [36] is listed as 30.5%.

In the case of “kallidin: neuropeptide provoking histamine release (KRPPGFSPFR; Lysyl-bradykinin; UniProt P01042 380-389, looked up)”, the “power in provoking histamine release, compared with substance p and polisteskinin” value [37] is given as “Less powerful”.

In the case of methionyl-lysyl-bradykinin, the “power in provoking histamine release, compared with substance p and polisteskinin” value [37] is given as “Less powerful”.

In the case of “polyoxyethylene sorbitan monooleate [tw80]”, the signs of toxicity [38] is given as “no dose-related signs of toxicity”.
